Results on 6 compounds are retold here after patent EP3878460A1, “GREEN TEA EXTRACT HAVING MODIFIED CONSTITUENT CONTENT AND COMPOSITION COMPRISING SAME” (priority 2018, dated 2020).

Series [1] deals with hepatocytes (HepG2 cells). Nature of the series: Hepacytotoxicity, cell viability by MTS assay. How it is done:
In order to investigate the hepatotoxicity of the high-temperature-processed green tea extract obtained in Example 1 (sample 2), hepatocytes (HepG2 cells) acquired from Korean Cell Line Bank were seeded onto a 96-well plate (Falcon) with 1×10^5 cells per well and cultured for 24 hours in a 5% CO2 incubator at 37 °C. Then, after treating with the sample 1 or sample 2 at 5, 10, 25, 50 or 100 µg/mL and culturing further for 24 hours, the medium was removed and cell viability was investigated using a CellTiter 96 AQueous One Solution cell proliferation assay kit (MTS, Promega Co. Madison, WI, USA). After treating the cells with 20 µL of a CellTiter 96 AQueous One Solution cell proliferation assay kit (MTS, Promega Co. Madison, WI, USA) solution added to 100 µL of RPMI1640 (Lonza), the number of live cells was quantified by measuring absorbance at 490 nm. The cell number or cell viability (%) was calculated by the following equation. Cell viability (%) = (absorbanceofsample-treatedgroup−absorbanceofreagentalone)/(absorbanceofnon-treatedgroup−absorbanceofreagentalone) × 100 [formula]
After treating the cells with 20 µL of a CellTiter 96 AQueous One Solution cell proliferation assay kit (MTS, Promega Co. Madison, WI, USA) solution added to 100 µL of RPMI1640 (Lonza), the number of live cells was quantified by measuring absorbance at 490 nm. The cell number or cell viability (%) was calculated as described in Test Example 1.
In general terms: Formazan colour is commonly taken as a measure of viable cells.

The test system of series [2] is hepatocytes (HepG2 cells). In kind it is cell-based, human. How it is done: The experimental condition was the same as in Test Example 1. After treating the cells with the sample 1 or sample 2, the levels of malate dehydrogenase 1 (MDH 1), α-glutathione S-transferase (GSTα) and sorbitol dehydrogenase (SDH) in the cell culture were measured 24 later.
In order to investigate the effect of the EGCG, GCG and EGC among the eight catechins on hepatocyte damage, release of enzymes from hepatocytes due to hepatocyte damage was analyzed using the MILLIPLEX Analyst software (Millipore). The experimental condition was the same as in Test Example 3. After treating the cells with EGCG, GCG or EGC, the levels of malate dehydrogenase 1 (MDH 1), α-glutathione S-transferase (GSTα) and sorbitol dehydrogenase (SDH) in the cell culture were measured 24 later.

The test system of series [3] is HepG2 human liver cancer cells. Nature of the series: Inhibition of lipid accumulation in hepatocytes (Oil Red O staining, stearic acid load). In kind it is cell-based. Particulars: 100 µM stearic acid, 48 hours, FIG. 8. How it is done:
In order to investigate the effect of inhibiting lipid accumulation in hepatocytes of the green tea extract sample 1 and sample 2 of Example 1, the inhibition of fat accumulation was compared after culturing HepG2 human liver cancer cells and treating with each sample.
Specifically, hepatocytes (HepG2 cells) were seeded onto a 12-well plate (Falcon) with 1×10^6 cells per well and cultured in a 5% CO2 incubator at 37 °C for 24 hours. Then, after treating with each of the sample 1 and the sample 2 at 3, 10 or 30 µg/mL and 100 µM stearic acid conjugated with bovine serum albumin (BSA), the cells were cultured for 48 hours. After removing the medium and washing with PBS, the cells were fixed with 4% formaldehyde. After incubating with 100% propylene glycol for 5 minutes, the fat in the cells was stained by adding 500 µL of Oil Red O solution (Sigma) per well and culturing the cells for 2 hours. […] After transferring 200 µL of the isopropanol solution to a 96-well plate, the fat accumulated in the cells was quantified by measuring absorbance at 485 nm. The Oil Red O content (%) relative to a control group (0.1% (v/v) DMSO) was calculated by the following equation. Oil red O content (%) = (absorbanceofsample-treatedgroup−absorbanceofcontrolgroup) × 100 [formula] […]

The mark [4] stands for this setting: HepG2 cells, 10, 50, 100 or 200 µM, 24 hours, calculated from cell viability.

In series [1] (human, 24 h), `Oc1cc(O)c2c(c1)O[C@H](c1ccc(O)c(O)c1)[C@H](O)C2` [EC, (-)epicatechin] yielded an LD50 of 505.0 µM. Regarding `Oc1cc(O)c2c(c1)O[C@H](c1cc(O)c(O)c(O)c1)[C@H](O)C2` [EGC, epigallocatechin], the “hepacytotoxicity among the eight catechins” value in series [1] was “highest hepacytotoxicity”. In addition, the LD50 in series [1] (setting [4]) is 183.9 µM. Moreover, the “levels of the three enzymes (MDH 1, GSTα, SDH) in the cell culture” value in series [2] was “highest”. In the case of `O=C(O[C@@H]1Cc2c(O)cc(O)cc2O[C@@H]1c1cc(O)c(O)c(O)c1)c1cc(O)c(O)c(O)c1` [EGCG, epigallocatechin gallate], the LD50 in series [1] (setting [4]) is listed as 355.5 µM. On to `Oc1cc(O)c2c(c1)O[C@H](c1cc(O)c(O)c(O)c1)[C@@H](O)C2` [GC, gallocatechin], for which the LD50 in series [1] (setting [4]) is 236.2 µM. `O=C(O[C@@H]1Cc2c(O)cc(O)cc2O[C@H]1c1cc(O)c(O)c(O)c1)c1cc(O)c(O)c(O)c1` [GCG, gallocatechin gallate]: the “effect of inhibiting lipid accumulation in hepatocytes compared to EGCG at the same concentration” value in series [3] was “remarkably excellent effect of inhibiting lipid accumulation in hepatocytes”. The LD50 in series [1] (setting [4]) is 212.7 µM. For the compound epicatechin 3-O-gallate [ECG], the LD50 in series [1] (setting [4]) is reported as 209.0 µM.
